# According to patent US20080207498A1, “Methods for Treating Alzheimer's Disease” (priority 2005, published 2008):
# Columns and labels:
# FcγIIb = experiment: Inhibition of FcR binding, reverse ELISA with PAP immune complexes; settings: PAP pre-incubated with peptide one hour, one hour on FcγR coated plates; lower OD = more inhibition; positive control 1.394
# Description: (§1) For this reason, a “reverse ELISA” technique was used to assess binding of the Fc region to ligands that bind to immune complexed IgG Fc. In a reverse ELISA, the enzyme (e.g., HRP) is not covalently conjugated to the Fc portion of the secondary antibody. Rather, a preformed immune complex of peroxidase-rabbit (or mouse) anti-peroxidase IgG (“PAP” complex) is used. […] In these experiments, an Fc CH2-CH3 cleft binding ligand (e.g., purified human C1q) was bound to microwell plates. In the absence of competitor, PAP complexes bound to the immobilized ligand and the reaction between HRP and its substrate produced a signal. This signal was reduced by polypeptides and compounds provided herein that inhibited PAP binding to the immobilized ligand.
# (§2) Once the reverse ELISA protocol was established using the C1q assay, the assay was redesigned using […], FcγIIb, and FcγIII in place of C1q. Highly purified FcγIIa, FcγIIb and FcγIII were immunoadsorbed onto plastic microwells. After optimizing the FcγR reverse ELISA system, simple competitive inhibition experiments using polypeptides provided herein were conducted to investigate their ability to inhibit binding of immune complexes to purified FcγR.
# (§3) Falcon microtiter plates were coated with 1:10 dilutions of highly purified FcγIIa, FcγIIb and FcγIII and incubated for 24 hours. The plates were washed and then blocked with 5×BSA blocking solution (Alpha Diagnostic International, San Antonio, Tex.) for 24 hours. PAP immune complexes were formed as described above. PAP (100 μl) were pre-incubated with 100 μl of peptide for one hour. PAP/peptide mixtures were added to the FcγR coated plates and incubated for one hour. After washing, plates were incubated with ABTS substrate for 15 minutes and read at 405 nm.
# FcγIII = experiment: as above; settings: PAP pre-incubated with peptide one hour, one hour on FcγR coated plates; lower OD = more inhibition; positive control 1.588
# Description: as §1, §2, §3
# purified human C1q = experiment: Inhibition of C1q binding, reverse ELISA with PAP immune complexes; settings: for inhibition of C1q binding, ranking in words: comment on Table 1
# Description: as §1
# PAP complexes were formed mixing 2 μl of rabbit anti-peroxidase (Sigma Chemicals, St. Louis, Mo.) with 50 μl of peroxidase (Sigma-Aldrich, St. Louis, Mo.) in 1 ml distilled water. PAP (100 μl) were pre-incubated with 100 μl of peptide for one hour, 100 μl were pre-incubated with 100 μl of peptide or human C1q (Quidel Corp., San Diego, Calif.) for one hour. The C1q/PAP and peptide/PAP mixtures (100 μl) were incubated with C1q coated plates for 30 minutes. After washing, plates were incubated with ATBS (Quidel Corp.) for 15 minutes and read at 405 nm.
# FcR = experiment: Inhibition of FcR binding to PAP; settings: comment on Table 2
# Experimental: as §2, §3
# [1] = system: human wt β amyloid peptide 1-40; experiment: Inhibition of immune complexed IgG binding to wt β-amyloid peptide, reverse ELISA; settings: for Wt 1-40 β-amyloid peptide (read at 405 nm): PAP pre-incubated with peptide one hour, 60 minutes on β-amyloid coated plates (33 μg/ml), positive control 3.278, substrate only 0.061
# Description: as §1
# Different fragments of the Aβ peptide contribute to the amyloid plaques pathognomic for AD, and these Aβ fragments appear to stimulate microglial activation and subsequent AD neuropathology. Thus, experiments were conducted to test Aβ 1-40 for binding to immune complexes, and to determine whether the inhibitors described herein can inhibit binding of PAP immune complexes to Aβ peptide. PAP complexes were prepared by mixing 2 μl of rabbit anti-peroxidase with 50 μl of peroxidase in 1 ml distilled water. PAP (100 μl) were pre-incubated with 100 μl of peptide for one hour. Control PAP (200 μl) also were incubated for one hour, and 100 μl of either PAP or PAP/peptide was added to Falcon microtiter plates that had been coated for 24 hours with 33 μg/ml human wt β amyloid peptide 1-40 (amyloid precursor protein (APP) fragment 1-40; Sigma-Aldrich) having the sequence […]Ans-Lys-Gly-Ale-[…](SEQ ID NO:39). The PAP or peptide/PAP mixtures were incubated on the β-amyloid peptide coated plates for 60 minutes. After washing, plates were incubated with ATBS for 15 minutes and read at 405 nm.
# IgG Fc = experiment: Binding of SEQ ID NO:16 to IgG Fc, alanine substitution; settings: alanine substitution of SEQ ID NO:16 Val-13 or Trp-14
# [2] = system: human wt tau protein (441 residues); experiment: Inhibition of immune complexed IgG binding to wt tau, reverse ELISA; settings: for Wt tau protein (read at 405 nm): PAP pre-incubated with peptide one hour, 60 minutes on tau coated plates (16.7 μg/ml), positive control 0.695, substrate only 0.060
# Description: as §1
# PAP complexes were formed by mixing 2 μl of rabbit anti-peroxidase with 50 μl of peroxidase in 1 ml distilled water. PAP (100 μl) were pre-incubated with 100 μl of peptide for one hour. Control PAP (200 μl) also was incubated for one hour. 100 μl of either PAP or PAP/peptide was added to Falcon microtiter plates that had been coated for 24 hours with 16.7 μg/ml human wt tau protein (441 residues; Sigma-Aldrich). The PAP or peptide/PAP mixtures (100 μl) were added after one hour to tau coated plates and incubated for 60 minutes. After washing, plates were incubated with ATBS for 15 minutes, and read at 405 nm.
# FcγIIa = experiment: Inhibition of FcR binding, reverse ELISA with PAP immune complexes; settings: PAP pre-incubated with peptide one hour, one hour on FcγR coated plates; lower OD = more inhibition; positive control 1.599
# Description: as §1, §2, §3
Sequence,FcγIIb (read at 405 nm) (FcγIIb),FcγIII (read at 405 nm) (FcγIII),"inhibition of C1q binding, ranking in words (purified human C1q)",Wt 1-40 β-amyloid peptide (read at 405 nm) [1],Wt tau protein (read at 405 nm) [2],further results
APPCAFHLGELVWCT,0.380,0.880,,,,
APPCARHLGELVWCT,,,next best result,,,
APPCAWHLGELVWCT,,0.530,,,,
APPDCAWHLGELVWCT,,0.670,"greatest inhibition of C1q binding, almost equaling C1q itself",0.885,0.059,"inhibition of FcR binding to PAP, ranking in words (FcR): greatest inhibition; ΔΔG, disruption of binding (IgG Fc): ≥ 2.0 kcal/mol; inhibition of human wt tau protein binding to PAP, ranking in words ([2]; comment on Table 3): greatest inhibition"
DCAFHLGELVWCT,0.510,0.810,,,,FcγIIa (read at 405 nm) (FcγIIa): 0.660
DCAWHLGELVWCT,,,,0.151,0.322,"OD 405 nm (purified human C1q; PAP pre-incubated with peptide or C1q for one hour, 30 minutes on C1q coated plates, lower OD = more inhibition, positive control 2.355): 1.100; inhibition of human wt β amyloid peptide binding to PAP, ranking in words ([1]; comment on Table 4): greatest inhibition"
